{"source": "patent US11027155B2", "about": "“Method for prevention and treatment of diabetic kidney disease” (priority 2019, dated 2021)", "key": {"[1]": {"system": "hyaluronan", "assay": "Serum hyaluronan content in 4-MU fed diabetic nephropathy mice", "format": "in vivo", "conditions": "4-MU fed animals, 5% 4-MU sodium salt in diet, after 3 weeks of treatment", "excerpt": "The present disclosure describes a new use of HA synthesis inhibitors for the treatment of Diabetic Kidney Disease. To study the effects of HA inhibitors on the development of DKD, our experiments were done by providing the test drug (4-Methylumbelliferone, 4-MU) in the food to one of the best available murine models of diabetic nephropathy, the diabetic and moderately hypertensive endothelial nitric oxide synthase/leptin receptor deficient (eNOS−/−/db/db) mice (Mohan S., et al. Laboratory Investigation. 2008, vol. 88, p. 515-528; Betz B., at al. Nephron Exp Nephrol. 2014, vol. 126, p. 191-195). At 9 weeks old, the double homozygous mutant eNOS/db mice were separated in two similar groups regarding sex, body weight, non-fasting plasma glucose concentrations, and consanguinity. Experimental animals were fed at libitum identical artificial diets formulated by Envigo-Teklad, containing or not 5% of 4-MU sodium salt (Sigma, cat. no. M1508) until 19 weeks of age. Both diets provided 3.5 Kcal/g and contained by weight: 17.7% of protein, 53.7% of carbohydrate, and 7.2% of fat. Diets were kept sealed under vacuum at −20° C. protected from light. Every week, the old food was removed, and animals were provided fresh food pellets. […] We detected in 4-MU fed animals a reduction of serum hyaluronan content of about 30% after 3 weeks of treatment."}, "[2]": {"assay": "Body weight and appearance monitored weekly in eNOS/db mice", "format": "in vivo", "excerpt": "The present disclosure describes a new use of HA synthesis inhibitors for the treatment of Diabetic Kidney Disease. To study the effects of HA inhibitors on the development of DKD, our experiments were done by providing the test drug (4-Methylumbelliferone, 4-MU) in the food to one of the best available murine models of diabetic nephropathy, the diabetic and moderately hypertensive endothelial nitric oxide synthase/leptin receptor deficient (eNOS−/−/db/db) mice (Mohan S., et al. Laboratory Investigation. 2008, vol. 88, p. 515-528; Betz B., at al. Nephron Exp Nephrol. 2014, vol. 126, p. 191-195).\n(§1) At 9 weeks old, the double homozygous mutant eNOS/db mice were separated in two similar groups regarding sex, body weight, non-fasting plasma glucose concentrations, and consanguinity. Experimental animals were fed at libitum identical artificial diets formulated by Envigo-Teklad, containing or not 5% of 4-MU sodium salt (Sigma, cat. no. M1508) until 19 weeks of age. Both diets provided 3.5 Kcal/g and contained by weight: 17.7% of protein, 53.7% of carbohydrate, and 7.2% of fat. Diets were kept sealed under vacuum at −20° C. protected from light. Every week, the old food was removed, and animals were provided fresh food pellets.\nThe weight and appearance of the animals was monitored weekly."}, "[3]": {"system": "plasma glucose", "assay": "Non-fasting plasma glucose (commercial kit EIAGLUC)", "format": "in vivo, mice", "conditions": "4-MU-treated vs control, end of the experiments (18-week-old)", "excerpt": "as §1, with “-20°” for “−20°”, “pellets. Plasma glucose levels were measured using a commercial kit ([…], Invitrogen). […] This fact remarks an important difference between our invention and the use of 4-MU to treat autoimmune diabetes.” for “pellets.”"}, "[4]": {"system": "C-Reactive Protein", "assay": "C-Reactive Protein immunoassay in serum", "format": "in vivo, mice", "conditions": "4 weeks after being fed with the special diets", "excerpt": "as §1, with “pellets. […] C—RP is considering the gold standard marker for inflammation and the lack of differences in this protein between our experimental mice points out that 4-MU is not affecting the development of DKD by crucially changing the inflammatory responses in our diabetic animals but for other mechanism of action.” for “pellets.”"}, "[5]": {"system": "eNOS−/−/db/db mice", "assay": "Glomerular Filtration Rate by single bolus FITC-inulin in conscious mice", "format": "in vivo", "excerpt": "The present disclosure describes a new use of HA synthesis inhibitors for the treatment of Diabetic Kidney Disease. To study the effects of HA inhibitors on the development of DKD, our experiments were done by providing the test drug (4-Methylumbelliferone, 4-MU) in the food to one of the best available murine models of diabetic nephropathy, the diabetic and moderately hypertensive endothelial nitric oxide synthase/leptin receptor deficient (eNOS−/−/db/db) mice (Mohan S., et al. Laboratory Investigation. 2008, vol. 88, p. 515-528; Betz B., at al. Nephron Exp Nephrol. 2014, vol. 126, p. 191-195). At 9 weeks old, the double homozygous mutant eNOS/db mice were separated in two similar groups regarding sex, body weight, non-fasting plasma glucose concentrations, and consanguinity. Experimental animals were fed at libitum identical artificial diets formulated by Envigo-Teklad, containing or not 5% of 4-MU sodium salt (Sigma, cat. no. M1508) until 19 weeks of age. Both diets provided 3.5 Kcal/g and contained by weight: 17.7% of protein, 53.7% of carbohydrate, and 7.2% of fat. […] In our experiments, GFR were determined before (week 8) and after 10 week of treatments (week 18) by a single bolus injection of fluorescein isothiocyanate-(FITC) labeled inulin in conscious mice (Rieg T. J Vis Exp. 2013, May 10: e50330, doi: 10.3791/50330). […]"}, "[6]": {"system": "eNOS−/−/db/db mice", "assay": "Comparison of kidney morphology", "format": "in vivo", "conditions": "diabetic mice fed 4-MU diet vs control diet", "excerpt": "The present disclosure describes a new use of HA synthesis inhibitors for the treatment of Diabetic Kidney Disease. To study the effects of HA inhibitors on the development of DKD, our experiments were done by providing the test drug (4-Methylumbelliferone, 4-MU) in the food to one of the best available murine models of diabetic nephropathy, the diabetic and moderately hypertensive endothelial nitric oxide synthase/leptin receptor deficient (eNOS−/−/db/db) mice (Mohan S., et al. Laboratory Investigation. 2008, vol. 88, p. 515-528; Betz B., at al. Nephron Exp Nephrol. 2014, vol. 126, p. 191-195). At 9 weeks old, the double homozygous mutant eNOS/db mice were separated in two similar groups regarding sex, body weight, non-fasting plasma glucose concentrations, and consanguinity. Experimental animals were fed at libitum identical artificial diets formulated by Envigo-Teklad, containing or not 5% of 4-MU sodium salt (Sigma, cat. no. M1508) until 19 weeks of age. Both diets provided 3.5 Kcal/g and contained by weight: 17.7% of protein, 53.7% of carbohydrate, and 7.2% of fat. Diets were kept sealed under vacuum at −20° C. protected from light. Every week, the old food was removed, and animals were provided fresh food pellets."}, "[7]": {"system": "eNOS−/−/db/db mice", "assay": "Kidney histopathology (H&E, PAS), semi-quantitative glomerular index", "format": "in vivo", "excerpt": "The present disclosure describes a new use of HA synthesis inhibitors for the treatment of Diabetic Kidney Disease. To study the effects of HA inhibitors on the development of DKD, our experiments were done by providing the test drug (4-Methylumbelliferone, 4-MU) in the food to one of the best available murine models of diabetic nephropathy, the diabetic and moderately hypertensive endothelial nitric oxide synthase/leptin receptor deficient (eNOS−/−/db/db) mice (Mohan S., et al. Laboratory Investigation. 2008, vol. 88, p. 515-528; Betz B., at al. Nephron Exp Nephrol. 2014, vol. 126, p. 191-195). At 9 weeks old, the double homozygous mutant eNOS/db mice were separated in two similar groups regarding sex, body weight, non-fasting plasma glucose concentrations, and consanguinity. Experimental animals were fed at libitum identical artificial diets formulated by Envigo-Teklad, containing or not 5% of 4-MU sodium salt (Sigma, cat. no. M1508) until 19 weeks of age. Both diets provided 3.5 Kcal/g and contained by weight: 17.7% of protein, 53.7% of carbohydrate, and 7.2% of fat. Diets were kept sealed under vacuum at −20° C. protected from light. Every week, the old food was removed, and animals were provided fresh food pellets. Finally, for histopathology analysis kidneys were collected from 4-MU-treated and control mice at the end of the experiment. Organs were fixed in 10% NB formalin for 44 hours, embedded in paraffin, and 3 urn sections were stained with Hematoxylin and Eosin (H&E) or Periodic acid—Schiff (PAS), before being examined following Zhao H J et al. (Zhao H. J., et al. J Am Soc Nephrol. 2006, vol. 17, p. 2664-2669). A semi-quantitative index was used to evaluate the degree of glomerular mesangial expansion and sclerosis. 50 glomeruli on a single section (25 from each kidney) were scored from 0 to 4, where 0 represents no lesions and 1, 2, 3, and 4 represent mesangial matrix expansion or sclerosis involving less than or equal to 25, 26-50, 51-75, or >75% of the glomerular tuft area, respectively. End stage sclerotic glomeruli (glomerulosclerosis) were counted, as well as the number of glomeruli that contained nodules, and the percentage of affected glomeruli within the 50 analyzed. Histopathology staining and analyses were done by an independent service and the specialists were blind regarding the nature of the samples."}, "[8]": {"system": "type 1 diabetes", "conditions": "after the onset of autoimmune insulitis, two mice models; cited from earlier work"}, "[9]": {"conditions": "cited from earlier work"}, "[10]": {"system": "LPS-Induced Lung Inflammation", "conditions": "mice; cited from earlier work"}, "[11]": {"system": "aortic smooth muscle cell (aSMC)", "conditions": "in vitro; cited from earlier work"}, "[12]": {"system": "renal ischemia-reperfusion injury (IRI)", "conditions": "cited from earlier work"}, "[13]": {"system": "HA synthesis", "conditions": "cited from earlier work"}, "[14]": {"system": "malignant tumor cells", "conditions": "in vitro and animal models of liver, breast, prostate, pancreatic, and renal carcinomas; cited from earlier work"}, "[15]": {"system": "diabetic patients", "conditions": "cited from earlier work"}, "[16]": {"conditions": "4-MU-treated vs control, end of the experiment"}}, "note": "“Also recorded” adds a separate entry of the source."}
{"compound": "Cc1cc(=O)oc2cc(O)ccc12", "note": "[4-MU, 4-Methylumbelliferone]", "values": [{"measurement": "reduction of serum hyaluronan content", "setting": "[1]", "result": "about 30%"}, {"measurement": "overall health and survival", "setting": "[2]; DKD animals", "result": "impacted their overall health and survival"}, {"measurement": "body weight over time vs control diet", "setting": "[2]; eNOS/db mice, 4-MU diet from 9 to 19 weeks of age", "result": "keep their body weight for a longer period; also recorded: kept their body weight longer"}, {"measurement": "weight loss (final weight divided by maximum reached weight) vs control", "setting": "[2]; final stages of the disease, end of the experiments", "result": "significant difference in weight loss; also recorded: control diet lost significantly more weight than the mice treated with 4-MU"}, {"measurement": "non-fasting plasma glucose levels", "setting": "[3]", "result": "No significant difference; also recorded: did not affect"}, {"measurement": "C-RP values in serum, treated vs untreated", "setting": "[4]", "result": "No significant difference; also recorded: not significant differences"}, {"measurement": "GFR, initial (week 7-8) vs final (week 18) in treated mice", "setting": "[5]; after 10 week of treatments", "result": "No significant difference; also recorded: kept their GFR values unchanged"}, {"measurement": "progression of DKD", "setting": "[5]; from GFR results", "result": "significantly delayed the progression of DKD"}, {"measurement": "kidney morphology", "setting": "[6]", "result": "abnormalities are less pronounced; also recorded: less advanced degree of DKD"}, {"measurement": "signs of nephritis and tubulitis", "setting": "[7]; 4-MU-treated mice, unlike control", "result": "did not found signs"}, {"measurement": "glomerular injury index", "setting": "[7]; [16]", "result": "significant lower"}, {"measurement": "nodular glomerulosclerosis", "setting": "[7]; [16]", "result": "lower"}, {"measurement": "degree of kidney injuries (histopathology summary)", "setting": "[7]; FIG. 8", "result": "lower degree of kidney injuries"}, {"measurement": "progression to type 1 diabetes", "setting": "[8]", "result": "halted progression to type 1 diabetes"}, {"measurement": "metabolism in vivo to 4-MUG and 4-MUS", "setting": "[9]", "result": "rapidly metabolized"}, {"measurement": "LPS-Induced Lung Inflammation", "setting": "[10]", "result": "can suppress"}, {"measurement": "aSMC apoptosis", "setting": "[11]", "result": "induced apoptosis"}, {"measurement": "aSMC proliferation, migration", "setting": "[11]", "result": "blocked"}, {"measurement": "hyaluronan content in kidneys", "setting": "[12]; 4-MU treatment", "result": "can reduce"}, {"measurement": "renal ischemia-reperfusion injury after kidney transplants", "setting": "[12]; inhibition pre and post-operatively", "result": "protective"}, {"measurement": "HA synthesis", "setting": "[13]", "result": "selectively inhibited"}, {"measurement": "cytostatic / anti-metastatic effect on malignant tumor cells", "setting": "[14]", "result": "useful as cytostatic or in preventing metastasis"}]}
{"compound": "Cc1ccc([C@@H]2O[C@H](CO)[C@@H](O)[C@H](O)[C@H]2O)cc1Cc1ccc(-c2ccc(F)cc2)s1", "note": "[canagliflozin]", "values": [{"measurement": "vascular and renal effects", "setting": "[15]", "result": "vascular and renal protective effects"}]}
